Measurements published in patent US11021690B2, “Mutant-type uricase, PEG modified mutant-type uricase, and application thereof” (SHANGHAI INSTITUTE OF BIOLOGICAL PRODUCTS CO., LTD., priority 2015, dated 2021).

How the values were obtained:
[1] = tested on: recombinant urate oxidase K103C (uricase, PBC, SEQ ID NO: 1, mutant K103C), unmodified; assay: Determination of Michaelis constant of unmodified K103C (uric acid oxidation, UV absorbance at 290 nm); assay type: biochemical; conditions: substrate uric acid, before PEG modification
Description: (§1) The activity of uricase was detected by UV spectrophotometry, enzymatic reaction rate was detected by measuring the decrease in absorbance at 290 nm caused by the oxidation of uric acid to allantoin. The enzyme activity unit is defined as follows: at 37° C., pH 8.5, the amount of uricase needed to catalyze the decomposition of 1 μmol of uric acid per minute is defined as 1 enzyme activity unit. The efficacy of uricase is represented as the activity unit of protein per mg (U/mg). […] Therefore, the oxidation of 1 μM uric acid in the reaction caused the reduction of absorbance by 12.04 mAu. The absorbance is derived from the linear part as the changes of the uric acid concentration. Wherein the calculation formula of enzyme activity is shown as follows: Enzyme activity (U/ml)=(ODb−ODt)*Vt*df/12.04*1.0*Vs*t
(§2) (Odb: the absorbance value in a blank control tube; Odt: the absorbance value in a detection tube; Vt: the total reaction volume, 1.28 ml; df: the dilution fold before sample addition to the system; Vs: the total volume after adding the test sample of uricase, 0.2 ml; t: the reaction time, 5 min; 12.04: the molar extinction coefficient of the substrate, uric acid under the test conditions; 1.0: optical path of cuvette, 1.0 cm) Enzyme activity (U/mg)=(U/ml)/C
(§3) (1) 1 mL of uric acid working solution was added to 2 EP tubes, respectively, marked as a reaction tube and a control tube, and subjected to the warm bath at 37° C. for 5 mins;
(§4) (2) Reaction tube: 200 μL of diluted enzyme solution was added at 37° C., and reacted for 5 min; control tube: no treatment at 37° C. and reacted for 5 min;
(§5) (3) Reaction tube: 80 μL, 20% of KOH was added to quench the reaction; control tube: after 80 μL, 20% of KOH was added to quench the reaction, 200 μL of diluted enzyme solution was added;
(4) UV absorption wavelength was determined at 290 nm.
(§6) By comparing Michaelis constant, the maximum enzymatic reaction rate and the catalytic constant of the mutant K103C before and after PEG modification, the effect of PEG modification on mutant uricase was evaluated.

[2] = tested on: PEG-K103C: recombinant urate oxidase (uricase, PBC, SEQ ID NO: 1) mutant K103C, PEG-modified (mPEG-MAL, approximately 20 kD); assay: Determination of Michaelis constant of PEG-modified K103C (uric acid oxidation, UV absorbance at 290 nm); assay type: biochemical; conditions: substrate uric acid, after PEG modification
Description: as §1, §2, §3, §4, §5
(4) UV absorption wavelength was determined at 290 nm. […]
as §6

`O=c1[nH]c(=O)c2[nH]c(=O)[nH]c2[nH]1` [uric acid] gave a Km [1] of 11.4 µM, a Vmax [1] of 2.333 µM/min and a kcat [1] of 15.864 s⁻¹. For the same compound, the Km [2] was 10.8 µM, the Vmax [2] was 1.823 µM/min and the kcat [2] was 12.396 s⁻¹.
